In ChEMBL document CHEMBL6134907, “Synthesis of 5,9- and 5,8-Diaminoalkoxy Substituted Benzophenanthridinone Analogues as Tyrosyl-DNA Phosphodiesterase 1 Inhibitors and Their Radiosensitizing Activity” (J Med Chem, 2025):
Activity calls are given as the source filed them. No cut-off for these calls is given here.

How the values were obtained:
[1] = target: T1, Tyrosyl-DNA phosphodiesterase 1 (Homo sapiens, UniProt Q9NUW8); experiment: Inhibition of recombinant TDP1 (unknown origin) assessed as substrate cleavage using 5'-Cy5-GATCTAAAAGACTT-pY-3' DNA substrate measured after 15 mins by gel-based assay
T1 sequence (Q9NUW8 whole entry): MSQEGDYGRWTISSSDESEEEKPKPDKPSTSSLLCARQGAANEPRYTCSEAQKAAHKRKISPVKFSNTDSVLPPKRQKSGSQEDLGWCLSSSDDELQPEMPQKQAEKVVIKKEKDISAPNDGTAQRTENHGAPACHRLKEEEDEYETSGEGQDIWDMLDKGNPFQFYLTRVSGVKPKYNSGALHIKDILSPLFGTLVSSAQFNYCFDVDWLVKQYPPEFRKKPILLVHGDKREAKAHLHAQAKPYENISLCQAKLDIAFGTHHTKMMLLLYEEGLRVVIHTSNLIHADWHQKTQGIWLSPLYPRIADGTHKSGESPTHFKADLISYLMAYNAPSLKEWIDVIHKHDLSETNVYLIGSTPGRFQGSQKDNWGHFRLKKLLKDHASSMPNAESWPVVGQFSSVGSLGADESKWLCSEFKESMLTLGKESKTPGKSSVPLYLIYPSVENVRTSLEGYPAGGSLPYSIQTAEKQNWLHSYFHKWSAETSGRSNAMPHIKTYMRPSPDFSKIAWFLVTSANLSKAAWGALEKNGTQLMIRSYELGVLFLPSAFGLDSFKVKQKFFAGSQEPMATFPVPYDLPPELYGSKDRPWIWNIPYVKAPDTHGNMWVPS

[2] = test system: HCT-116; experiment: Radiosensitizing activity in human HCT-116 cells assessed as induction of 2 GY ionizing radiation (IR) induced cell killing effect; type: functional, cell-based
[3] = target: T1, Tyrosyl-DNA phosphodiesterase 1; experiment: Inhibition of recombinant TDP1 (unknown origin) assessed as substrate cleavage using 5'-Cy5-GATCTAAAAGACTT-pY-3' DNA substrate at 111 uM measured after 15 mins by gel-based assay
[4] = test system: HCT-116; experiment: Cytotoxicity against human HCT116 cells assessed as cell killing at 0.1 uM relative to control; type: functional
[5] = test system: HCT-116; experiment: Radiosensitizing activity in human HCT-116 cells assessed as sensitization of 2 GY ionizing radiation (IR) induced cell killing effect at 0.2 uM relative to control; type: functional
[6] = test system: HCT-116; experiment: Cytotoxicity against human HCT116 cells assessed as cell killing at 0.2 uM relative to control; type: functional
[7] = test system: HCT-116; experiment: Synergistic cytotoxicity against human HCT116 cells assessed as combination index at 0.5 uM incubated for 48 hrs in presence of 2GY ionizing radiation (IR); type: functional

Row | Structure (SMILES) | IC50 [1] [µM] | inhibition [3] | further results
1 | COc1cc2c(=O)n(CCN(C)C)c3c4cc5c(cc4ccc3c2cc1OCCN(C)C)OCO5 | 12 |  | 
2 | COc1cc2c(=O)n(CCN(C)C)c3c4cc5c(cc4ccc3c2cc1OCCCN1CCN(C)CC1)OCO5 | 7.8 |  | Activity [2]: Active
3 | CCN(CC)CCOc1cc2c(cc1OC)c(=O)n(CCN(C)C)c1c3cc4c(cc3ccc21)OCO4 | 43 |  | 
4 | COc1cc2c(=O)n(CCN(C)C)c3c4cc5c(cc4ccc3c2cc1OCCCN(C)C)OCO5 | 4.7 |  | Activity [2]: Active
5 | CCN(CC)C(=O)COc1cc2c(cc1OC)c(=O)n(CCN(C)C)c1c3cc4c(cc3ccc21)OCO4 |  | inactive | 
6 | COc1cc2c(cc1OCCCN1CCOCC1)c(=O)n(CCN(C)C)c1c3cc4c(cc3ccc21)OCO4 | 17 |  | 
7 | COc1cc2c(=O)n(CCN(C)C)c3c4cc5c(cc4ccc3c2cc1OCCCN1CCOCC1)OCO5 |  | inactive | 
8 | CCN(CC)CCOc1cc2c(=O)n(CCN(C)C)c3c4cc5c(cc4ccc3c2cc1OC)OCO5 | 20 |  | 
9 | COc1cc2c(=O)n(CCN(C)C)c3c4cc5c(cc4ccc3c2cc1OCCCNC12CC3CC(CC(C3)C1)C2)OCO5 | 1.6 |  | Activity [2]: Active
10 | COc1cc2c(=O)n(CCN(C)C)c3c4cc5c(cc4ccc3c2cc1OCCCn1ccnc1)OCO5 |  | inactive | 
11 | COc1cc2c(cc1OCCCn1ccnc1)c(=O)n(CCN(C)C)c1c3cc4c(cc3ccc21)OCO4 |  | inactive | 
12 | COc1cc2c(cc1OCCN1CCN(C)CC1)c(=O)n(CCN(C)C)c1c3cc4c(cc3ccc21)OCO4 | 46 |  | 
13 | COc1cc2c(=O)n(CCN(C)C)c3c4cc5c(cc4ccc3c2cc1OCCN1CCCC1)OCO5 |  | inactive | 
14 | CCN(CC)CCCOc1cc2c(=O)n(CCN(C)C)c3c4cc5c(cc4ccc3c2cc1OC)OCO5 | 6.4 |  | 
15 | COc1cc2c(=O)n(CCN(C)C)c3c4cc5c(cc4ccc3c2cc1OCCCN1CCSCC1)OCO5 | 5.7 |  | Activity [2]: Active; Activity [4]: 19%; Activity [5]: 93%; Activity [6]: 73%; CI [7]: <0.3
16 | CCCCN(CCCC)CCCOc1cc2c(cc1OC)c(=O)n(CCN(C)C)c1c3cc4c(cc3ccc21)OCO4 | 31 |  | 
17 | CCN(CC)CCCOc1cc2c(cc1OC)c(=O)n(CCN(C)C)c1c3cc4c(cc3ccc21)OCO4 | 10 |  | Activity [2]: Active
18 | COc1cc2c(cc1OCCn1ccnc1)c(=O)n(CCN(C)C)c1c3cc4c(cc3ccc21)OCO4 |  | inactive | 
19 | CCCCN(CCCC)CCOc1cc2c(cc1OC)c(=O)n(CCN(C)C)c1c3cc4c(cc3ccc21)OCO4 | 23 |  | 

Row | Structure (SMILES) | IC50 [1] [µM] | inhibition [3] | further results
20 | COc1cc2c(cc1OCCCN1CCN(C)CC1)c(=O)n(CCN(C)C)c1c3cc4c(cc3ccc21)OCO4 | 31 |  | 
21 | COc1cc2c(=O)n(CCN(C)C)c3c4cc5c(cc4ccc3c2cc1OCCN1CCN(C)CC1)OCO5 | 6 |  | Activity [2]: Active
22 | COc1cc2c(=O)n(CCN(C)C)c3c4cc5c(cc4ccc3c2cc1OCCCN1CCCC1)OCO5 | 3.6 |  | Activity [2]: Active
23 | COc1cc2c(cc1OCCN1CCOCC1)c(=O)n(CCN(C)C)c1c3cc4c(cc3ccc21)OCO4 |  | inactive | 
24 | COc1cc2c(cc1OCCN1CCCC1)c(=O)n(CCN(C)C)c1c3cc4c(cc3ccc21)OCO4 | 29 |  | 
25 | COc1cc2c(cc1OCCCN(C)C)c(=O)n(CCN(C)C)c1c3cc4c(cc3ccc21)OCO4 | 9.3 |  | Activity [2]: Active
26 | COc1cc2c(=O)n(CCN(C)C)c3c4cc5c(cc4ccc3c2cc1OCC(=O)N1CCOCC1)OCO5 |  | inactive | 
27 | COc1cc2c(=O)n(CCN(C)C)c3c4cc5c(cc4ccc3c2cc1OCCCN1CCCCC1)OCO5 | 6.9 |  | 
28 | COc1cc2c(=O)n(CCN(C)C)c3c4cc5c(cc4ccc3c2cc1OCCN1CCSCC1)OCO5 |  | inactive | 
29 | COc1cc2c(=O)n(CCN(C)C)c3c4cc5c(cc4ccc3c2cc1OCCN1CCCCC1)OCO5 | 22 |  | 
30 | COc1cc2c(=O)n(CCN(C)C)c3c4cc5c(cc4ccc3c2cc1OCCCc1ccccc1)OCO5 |  | inactive | 
31 | COc1cc2c(cc1OCCN(C)C)c(=O)n(CCN(C)C)c1c3cc4c(cc3ccc21)OCO4 | 59 |  | 
32 | COc1cc2c(=O)n(CCN(C)C)c3c4cc5c(cc4ccc3c2cc1OCCc1ccccc1)OCO5 |  | inactive | 
33 | COc1cc2c(cc1OCCCN1CCCCC1)c(=O)n(CCN(C)C)c1c3cc4c(cc3ccc21)OCO4 | 7.4 |  | Activity [2]: Active
34 | COc1cc2c(=O)n(CCN(C)C)c3c4cc5c(cc4ccc3c2cc1OCC(=O)N(C)C)OCO5 |  | inactive | 
35 | COc1cc2c(=O)n(CCN(C)C)c3c4cc5c(cc4ccc3c2cc1OCCn1ccnc1)OCO5 | 33 |  | 
36 | COc1cc2c(cc1OCCN1CCCCC1)c(=O)n(CCN(C)C)c1c3cc4c(cc3ccc21)OCO4 | 16 |  | 
37 | COc1cc2c(cc1OCCCN1CCCC1)c(=O)n(CCN(C)C)c1c3cc4c(cc3ccc21)OCO4 | 5.4 |  | Activity [2]: Active
